Experimental data published in patent US6160006A (priority 1997, dated 2000).
Like-named read-outs stand apart in the source and are kept apart here.

How the values were obtained:
cytochrome P450 [1] = settings: dose far in excess of the amount in grapefruit juice; cited from earlier work
CYP3A [2] = experiment: CYP3A activity: 6β-hydroxytestosterone formation from testosterone in rat liver microsomes
Description: (§1) Measurement of CYP3A Activity. CYP3A activity was assessed by measuring the formation rate of 6β-hydroxytestosterone from testosterone in dexamethasone-induced liver microsomes from male Sprague-Dawley rats (Human Biologics Inc., Phoenix, Az.) using incubation conditions identical to those described previously. Edwards, D. J. et al., Life Sci. 59:1025-1030 (1996). […] Siess, M.-H. et al., Toxicol. Appl. Pharmacol. 130:73-78 (1995). In addition, 6β-hydroxytestosterone formation was also measured in human lymphoblast microsomes containing CYP3A4 expressed from transfected human CYP3A4 cDNA (Gentest Corporation, Woburn, Mass.).
(§2) HPLC Procedures and instrumentation. […] Methylene chloride (4 ml) was added and samples were vortex mixed for 2 minutes. After centrifugation, the organic phase was evaporated, the residue re-constituted in 200 μl of mobile phase (55% methanol in water) and injected (100 μl) onto the column (Partisil 5 ODS-3 25 cm C18 column, Whatman Inc., Clifton, N.J.). A mobile phase flow rate of 1.2 ml/minute was used with detection of analytes at 254 nm (Waters 490E multiwavelength UV detector, Waters Corp., Milford, Mass.).
Metabolic Experiments. Grapefruit juice (1 ml) was extracted into methylene chloride and, following evaporation of the organic phase, the residue was reconstituted in mobile phase and chromatographed by HPLC. Fractions of the HPLC eluent were collected at 3-4 minute intervals following injection, evaporated and the effect of the residue on 6β-hydroxytestosterone formation examined. […] Edwards, D. J. et al., Life Sci. 59:1025-1030 (1996). The effect of these solutions on 6β-hydroxytestosterone formation was compared using analysis of variance (SYSTAT for Windows™, Version 5.0) with the Tukey test for post-hoc analysis (p<0.05 for significance).

P450 3A4 [3] = biological target: T1, P450 3A4 (Homo sapiens, UniProt P08684); experiment: Inactivation of P450 3A4 in human liver microsomes (testosterone 6β-hydroxylation, P450 content); assay type: biochemical; set-up: The human liver microsomes was prepared by differential centrifugation; from tissue; host or cells: human liver (microsomes); settings: for P450 Content / Testosterone 6-β hydroxylation: 400 μM DHB, 15 min, 37° C., pH 7.5
Description: Inactivation of P450 3A4 in human liver microsomes and E. coli membranes. […] At end of the incubation, 100 μl of the incubation mixture was taken for determination of testosterone 6β-hydroxylation activity. The other aliquot was used for P450 determination by the method of Omura and Sato. Ducharme, M. P. et al., Clin. Pharmacol. Ther. 57:485-491 (1995). The human liver microsomes was prepared by differential centrifugation.
Determination of testosterone 6β-hydroxylation. The human liver microsomes or the P450 3A4 and reductase containing E. coli membrane fractions ([…] of P450) were incubated with 200 μM testosterone in 1 ml of 50 mM Hepes buffer (pH 7.5). The reactions were initiated by the addition of 1 mM NADPH and terminated by 1 ml of ethyl acetate in ice. The 6β-hydoxytestosterone product was determined by HPLC on a C18 column (Microsorb-MV, 5 μm, 4.6×15 cm) eluted with a mobile phase of 65% of methanol at flow rate of 1 ml/min and the eluate was monitored by UV detection at 254 nm.
Target sequence in this assay (P08684 whole entry): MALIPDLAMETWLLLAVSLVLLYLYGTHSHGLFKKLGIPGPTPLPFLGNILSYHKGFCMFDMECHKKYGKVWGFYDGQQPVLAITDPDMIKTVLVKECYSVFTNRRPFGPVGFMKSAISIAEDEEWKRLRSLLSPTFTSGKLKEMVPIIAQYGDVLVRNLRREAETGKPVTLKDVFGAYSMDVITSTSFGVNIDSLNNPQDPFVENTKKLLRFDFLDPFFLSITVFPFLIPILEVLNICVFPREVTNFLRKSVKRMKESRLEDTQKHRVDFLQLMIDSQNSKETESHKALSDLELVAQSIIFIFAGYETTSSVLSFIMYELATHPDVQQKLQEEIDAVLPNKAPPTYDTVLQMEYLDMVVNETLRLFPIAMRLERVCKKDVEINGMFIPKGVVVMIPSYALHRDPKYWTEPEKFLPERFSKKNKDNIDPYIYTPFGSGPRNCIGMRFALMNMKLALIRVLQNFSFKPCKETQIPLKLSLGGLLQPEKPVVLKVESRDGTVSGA

P450 3A4 [4] = biological target: T1, P450 3A4; settings: for inhibition: e. coli membranes
Target sequence in this assay (P08684 whole entry): as above
Target sequence in this assay (P16435 whole entry partner): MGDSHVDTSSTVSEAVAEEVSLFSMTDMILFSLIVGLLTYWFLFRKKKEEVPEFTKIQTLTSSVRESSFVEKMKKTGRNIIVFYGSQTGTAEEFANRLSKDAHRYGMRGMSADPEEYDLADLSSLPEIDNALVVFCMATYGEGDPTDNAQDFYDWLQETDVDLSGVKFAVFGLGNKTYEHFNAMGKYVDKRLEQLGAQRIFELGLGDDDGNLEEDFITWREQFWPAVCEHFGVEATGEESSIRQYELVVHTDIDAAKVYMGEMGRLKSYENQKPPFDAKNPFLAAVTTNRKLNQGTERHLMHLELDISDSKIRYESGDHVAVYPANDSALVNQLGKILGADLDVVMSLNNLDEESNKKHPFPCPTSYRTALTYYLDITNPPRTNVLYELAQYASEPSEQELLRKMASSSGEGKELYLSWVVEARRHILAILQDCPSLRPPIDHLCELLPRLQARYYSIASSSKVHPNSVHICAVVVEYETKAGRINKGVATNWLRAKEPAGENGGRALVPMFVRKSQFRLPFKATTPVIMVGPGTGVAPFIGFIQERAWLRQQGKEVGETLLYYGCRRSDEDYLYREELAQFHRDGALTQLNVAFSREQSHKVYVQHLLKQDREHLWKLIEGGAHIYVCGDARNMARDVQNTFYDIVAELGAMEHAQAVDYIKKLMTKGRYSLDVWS
Description: Determination of testosterone 6β-hydroxylation. The human liver microsomes or the P450 3A4 and reductase containing E. coli membrane fractions (100 μmol of P450) were incubated with 200 μM testosterone in 1 ml of 50 mM Hepes buffer (pH 7.5). The reactions were initiated by the addition of 1 mM NADPH and terminated by 1 ml of ethyl acetate in ice. The 6β-hydoxytestosterone product was determined by HPLC on a C18 column (Microsorb-MV, 5 μm, 4.6×15 cm) eluted with a mobile phase of 65% of methanol at flow rate of 1 ml/min and the eluate was monitored by UV detection at 254 nm.

[5] = Solubility in ethanol versus water; assay type: physicochemical; settings: ethanol vs water
CYP3A4 (3A4) = experiment: Inhibition of CYP3A4 in a purified enzyme preparation; assay type: biochemical
human CYP3A4 = human CYP3A4 (Homo sapiens, UniProt P08684); experiment: 6β-hydroxytestosterone formation in human lymphoblast microsomes containing CYP3A4 expressed from transfected human CYP3A4 cDNA
Description: as §1, §2
Metabolic Experiments. Grapefruit juice (1 ml) was extracted into methylene chloride and, following evaporation of the organic phase, the residue was reconstituted in mobile phase and chromatographed by HPLC. […]

CYP3A [6] = settings: co-administration; cited from earlier work
oxidative metabolism = settings: in vitro; cited from earlier work
CYP3A [7] = settings: cited from earlier work
CYP3A4 = settings: human, in vivo; cited from earlier work
P450 [8] = settings: oral erythromycin; oral and IV midazolam; cited from earlier work
cytochrome P450 [9] = settings: cited from earlier work
P450 [10] = settings: in vivo, treated rats; cited from earlier work
P450 1A1 = settings: cited from earlier work
P450 1A2 = settings: cited from earlier work
P450 2B4 = settings: cited from earlier work
P450 2B1 = settings: cited from earlier work
[11] = preincubation with DHB and NADPH

Chain of human CYP3A4 (P08684 whole entry): as the sequence (P08684 whole entry) above

O=c1c(O)c(-c2ccc(O)c(O)c2)oc2cc(O)cc(O)c12 [quercetin]
effect on cytochrome P450 activity (cytochrome P450 [1]): no effect

C/C(=C\COc1c2ccoc2cc2oc(=O)ccc12)CCC(O)C(C)(C)O (centres unmarked) [6',7'-dihydroxybergamottin]
inhibition, concentration dependence and need of pre-incubation (CYP3A [2]): inhibition is concentration-dependent and requires no pre-incubation with microsomes | IC50 (CYP3A [2]; microsomes): 25000 nM | effect of GSH on inactivation (P450 3A4 [3]; 2 mM GSH in the incubation system): not inhibited by the presence of 2 mM GSH | P450 Content (P450 3A4 [3]; +NADPH/+DHB): 0.87 nmol/mL | Testosterone 6-β hydroxylation (P450 3A4 [3]; +NADPH/+DHB): 0.18 nmol/nmol P450/min | P450 Content (P450 3A4 [3]; -NADPH/+DHB): 0.93 nmol/mL | Testosterone 6-β hydroxylation (P450 3A4 [3]; -NADPH/+DHB): 0.37 nmol/nmol P450/min | inhibition of 6β-hydroxytestosterone formation activity, mode (P450 3A4 [3]; FIG. 4, human liver microsomes): time and concentration dependent as well as requiring catalytic turnover | P450 3A4 activity inhibition, in words (P450 3A4 [3]; human liver microsomes): significantly inhibited | inactivation of 3A4, in words (P450 3A4 [3]; human liver microsomes): potent NADPH- and time dependent inactivator of 3A4 | P450 retained (reduced-CO spectrum) (P450 3A4 [3]; [11]): about 90% | loss of P450 3A4 catalytic activity (P450 3A4 [3]; [11]): 70% | inhibition at 20 µM (P450 3A4 [3]; without preincubation, final concentration of 20 μM, read-out: testosterone 6β-hydroxylase activity inhibited (competitive inhibition)): ~30% | inhibition (P450 3A4 [4]): ~45% | inhibition (P450 3A4 [4]; 15 min): 90% | inactivation of 3A4, in words (P450 3A4 [4]; human 3A4 expressed in E. coli membrane): potent NADPH- and time dependent inactivator of 3A4 | solubility, in words [5]: much more soluble in ethanol than water | inactivation of 3A4, in words (CYP3A4 (3A4)): potent NADPH- and time dependent inactivator of 3A4 | IC50 (human CYP3A4): 1000 to 2000 nM

CC(=O)N1CCN(c2ccc(OCC3COC(Cn4ccnc4)(c4ccc(Cl)cc4Cl)O3)cc2)CC1 (centres unmarked) [ketoconazole, reference compound]
IC50 (CYP3A [2]; read-out: concentration required to inhibit 6β-hydroxytestosterone formation by 50% (IC50), rat liver microsomes (dexamethasone-induced)): […] | bioavailability of cyclosporine (CYP3A [6]): increases bioavailability

C[C@@H]1O[C@@H](O[C@H]2[C@H](Oc3cc(O)c4c(c3)O[C@H](c3ccc(O)cc3)CC4=O)O[C@H](CO)[C@@H](O)[C@@H]2O)[C@H](O)[C@H](O)[C@H]1O [naringin]
inhibition of oxidative metabolism (oxidative metabolism): weak inhibitor | inhibition of CYP3A / contribution to it (CYP3A [7]): do not significantly contribute | effect on disposition of substrates for CYP3A4 (CYP3A4): did not significantly affect

O=C1C[C@@H](c2ccc(O)cc2)Oc2cc(O)cc(O)c21 [naringenin]
inhibition of CYP3A / contribution to it (CYP3A [7]): do not significantly contribute

CC[C@H]1OC(=O)[C@H](C)[C@@H](O[C@H]2C[C@@](C)(OC)[C@@H](O)[C@H](C)O2)[C@H](C)[C@@H](O[C@@H]2O[C@H](C)C[C@H](N(C)C)[C@H]2O)[C@](C)(O)C[C@@H](C)C(=O)[C@H](C)[C@@H](O)[C@]1(C)O [erythromycin]
metabolism of midazolam (P450 [8]): impaired the metabolism of midazolam after both oral and IV administration

chlorophyllin
inhibition of cytochrome P450 activity (cytochrome P450 [9]): non-specific inhibition of cytochrome P450 activity

COc1c2occc2cc2ccc(=O)oc12 [8-methoxyporalen]
heme fragment, MI complex and heme adduct formation (P450 [10]): no heme fragment, MI complex and heme adduct formation

COc1c2ccoc2cc2cc(C)oc(=O)c12 [coriandrin]
binding to apoP450 (P450 1A1): covalent binding | binding to apoP450 (P450 1A2): covalent binding

C#Cc1cc2ccccc2c2ccccc12 [9-ethynylphenanthrene]
mechanism based inactivation (P450 2B4): mechanism based inactivation | mechanism based inactivation (P450 2B1): mechanism based inactivation

C#Cc1ccc2c(ccc3ccccc32)c1 [2-ethynylphenanthrene]
mechanism based inactivation (P450 2B4): mechanism based inactivation | mechanism based inactivation (P450 2B1): mechanism based inactivation
